According to ChEMBL document CHEMBL3137667, “[Drug-induced liver injury; fourteenth updated edition of the bibliographic database of liver injuries and related drugs]” (Gastroenterol Clin Biol, 2004):

What was measured:
[1] = human
[2] = human; remark: listed apart in the source
[3] = human; remark: listed apart in the source
[4] = human; remark: listed apart in the source
[5] = human; remark: listed apart in the source
[6] = Highest frequency of moderate liver toxicity observed during clinical trials, expressed as a percentage. [column '% BIOL' in source]; conditions: human
[7] = human; remark: listed apart in the source
[8] = human, serum
[9] = human; remark: listed apart in the source
[10] = human, serum; remark: listed apart in the source
[11] = human; remark: listed apart in the source
[12] = human; remark: listed apart in the source
[13] = Highest frequency of acute liver toxicity observed during clinical trials, expressed as a percentage. [column '% AIGUE' in source]; conditions: human
[14] = Times to onset, minimal and maximal, observed in the indexed observations. [column 'DELAI' in source]; conditions: human
[15] = human; remark: listed apart in the source
[16] = human, serum, 4383 h
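Wherever Hepatotoxicity (association with vascular disease) is given: count of indexed literature references reporting vascular liver injury in humans, e.g. peliosis hepatitis, hepatic veno-occlusive disease or Budd-Chiari syndrome.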
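Wherever Hepatotoxicity (benign tumour) is given: value is a count of indexed literature references citing a benign tumour confirmed by histopathology.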
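Wherever Hepatotoxicity (choleostasis) is given: human cholestatic liver injury, shown by histopathology or by peak ALT or AST elevation over alkaline phosphatase ratio below 2, value counts indexed literature reports.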
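Wherever Hepatotoxicity (chronic liver disease) is given: chronic liver injury confirmed by histopathology or persistently raised serum aminotransferase activity beyond 6 months, value given as the count of indexed literature references.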
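Wherever Hepatotoxicity (cirrhosis) is given: value is a count of indexed literature references reporting cirrhosis confirmed by histopathology.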
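Wherever Hepatotoxicity (cytolytic) is given: human cytolytic liver injury, shown by histopathology or by a ratio above 5 of peak ALT or AST elevation to alkaline phosphatase elevation, value counts indexed references.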
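Wherever Hepatotoxicity (granulomatous hepatitis) is given: value is a count of indexed literature references reporting granulomatous liver disease confirmed by histopathology.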
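Wherever Hepatotoxicity (malignant tumour) is given: malignant tumour confirmed by histopathology, value gives the count of indexed literature references reporting it.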
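Wherever Hepatotoxicity (severe hepatitis) is given: human clinical data: severe hepatitis, meaning potentially life-threatening liver failure or clinically observed cases, the value counts how many indexed literature references report it.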
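Wherever Hepatotoxicity (steatosis) is given: steatosis confirmed by histopathology, value is the count of indexed references.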

Row | SMILES | Hepatotoxicity (malignant tumour) [1] | Hepatotoxicity (severe hepatitis) ([2]; Liver) | Hepatotoxicity (association with vascular disease) [3] | Hepatotoxicity (steatosis) [4] | Hepatotoxicity (choleostasis) ([5]; Liver) | Hepatotoxicity (moderate) ([6]; Liver) | Hepatotoxicity (cytolytic) ([7]; Liver) | Hepatotoxicity (acute) [8] | Hepatotoxicity (benign tumour) [9] | Hepatotoxicity (moderate) [10] | Hepatotoxicity (animal toxicity known) [11] | Hepatotoxicity (cirrhosis) [12] | Hepatotoxicity (time to onset) [14] | Hepatotoxicity (chronic liver disease) [16] | Hepatotoxicity (severe hepatitis) [2] | Hepatotoxicity (choleostasis) [5] | Hepatotoxicity (moderate) [6] | Hepatotoxicity (cytolytic) [7] | Hepatotoxicity (acute) [13] | Hepatotoxicity (granulomatous hepatitis) [15] | other results
1 | Cl[C@H]1[C@H](Cl)[C@@H](Cl)[C@@H](Cl)[C@H](Cl)[C@H]1Cl [LINDANE] | 0 | 0 | 0 | 0 | 0 | 0% | 1 | 2 | 0 | 0 | yes | 0 | 3 weeks | 0 |  |  |  |  |  |  | Hepatotoxicity (acute) ([13]; Liver): 0%; Hepatotoxicity (granulomatous hepatitis) ([15]; Liver): 0
2 | O=NN(CCCl)C(=O)NC1CCCCC1 [LOMUSTINE] | 0 |  | 0 | 0 |  |  |  | 2 | 0 | 4 | yes | 0 | 2 days - 4 months | 0 | 1 | 2 | 39% | 1 | 0% | 0 | 
3 | OC(c1cc(C(F)(F)F)nc2c(C(F)(F)F)cccc12)C1CCCCN1 (stereo not given) [MEFLOQUINE] | 0 |  | 0 | 1 |  |  |  | 2 | 0 | 5 | yes | 0 | 2 weeks - 3 weeks | 0 | 0 | 0 | 22.5% | 1 | 0% | 0 | 
4 | [N-]=[N+]=O [NITROUS OXIDE] | 0 |  | 0 | 0 |  |  |  | 1 | 0 | 1 | yes | 0 | 9 days | 0 | 0 | 0 | 0% | 1 | 0% | 0 | 
5 | CNCCC=C1c2ccccc2CCc2ccccc21 [NORTRIPTYLINE] | 0 | 2 | 0 | 0 | 0 | 0% | 2 | 2 | 0 | 1 | yes | 0 | 2 months - 3 months | 0 |  |  |  |  |  |  | Hepatotoxicity (acute) ([13]; Liver): 0%; Hepatotoxicity (granulomatous hepatitis) ([15]; Liver): 0
6 | NNCCc1ccccc1 [PHENELZINE] | 1 | 7 | 0 | 0 | 0 | 0% | 6 | 6 | 0 | 1 | yes | 1 | 3 weeks - 5 months | 0 |  |  |  |  |  |  | Hepatotoxicity (acute) ([13]; Liver): 0%; Hepatotoxicity (granulomatous hepatitis) ([15]; Liver): 0
7 | COC(=O)[C@H]1[C@H]2C[C@@H]3c4[nH]c5cc(OC)ccc5c4CCN3C[C@H]2C[C@@H](OC(=O)c2cc(OC)c(OC)c(OC)c2)[C@@H]1OC [RESERPINE] | 0 |  | 0 | 0 |  |  |  | 3 | 0 | 0 | yes | 0 | 1 year | 0 | 0 | 1 | 0% | 0 | 0% | 0 | 
8 | CN(C)[C@@H]1C(O)=C(C(=O)NCN2CCCC2)C(=O)[C@@]2(O)C(O)=C3C(=O)c4c(O)cccc4[C@@](C)(O)[C@H]3C[C@@H]12 [ROLITETRACYCLINE] | 0 |  | 0 | 0 |  |  |  | 1 | 0 | 0 | yes | 0 | 2 days | 0 | 1 | 0 | 0% | 1 | 0% | 0 | 
9 | N=C(N)c1ccc(/C=C/c2ccc(C(=N)N)cc2)cc1 [STILBAMIDINE] | 0 |  | 0 | 0 |  |  |  | 1 | 0 | 0 | yes | 0 | 1 month - 3 months | 0 | 0 | 0 | 0% | 1 | 0% | 0 | 
10 | COc1ccc(NS(=O)(=O)c2ccc(N)cc2)nn1 [SULFAMETHOXYPYRIDAZINE] | 0 |  | 0 | 0 |  |  |  | 4 | 0 | 0 | yes | 0 | 1 month - 2 months | 0 | 0 | 2 | 0% | 4 | 0% | 0 | 
